Results published in the Kinase Knowledgebase extract (Sharma et al. 2016).

The molecules below were run against PIK3CB;PIK3CG;PIK3CD;PIK3CA (human) (UniProt P48736) (assay: Inhibition of PIK3CA/PIK3CB/PIK3CD/PIK3CG Kinase Activity).
An IC50 of 190 nM was found for `COc1ccc(CCS(C)(=O)=O)c(Nc2nc3ccccc3nc2NS(=O)(=O)c2c(C)noc2C)c1` in this work.
An IC50 of 3340 nM was found for `COc1cc(Nc2nc3ccccc3nc2NS(=O)(=O)c2cccnc2)cc(C(=O)N2CCN(C)CC2)c1` in this work.
An IC50 of 45 nM was found for `COc1ccc(CC2CCN(C)CC2)c(Nc2nc3ccccc3nc2NS(=O)(=O)c2cccnc2)c1` in this work.
An IC50 of 50 nM was found for `COc1ccc(CCCS(C)(=O)=O)c(Nc2nc3ccccc3nc2NS(=O)(=O)c2cn(C)cn2)c1` in this work.
An IC50 of 48 nM was found for `COc1ccc(CCO)c(Nc2nc3ccccc3nc2NS(=O)(=O)c2cn(C)cn2)c1` in this work.
An IC50 of 26 nM was found for `COc1ccc(CCCO)c(Nc2nc3ccccc3nc2NS(=O)(=O)C2CCNCC2)c1` in this work.
An IC50 of 450 nM was found for `COc1ccc(CC2CCCCC2)c(Nc2nc3ccccc3nc2NS(=O)(=O)c2cn(C)cn2)c1` in this work.
An IC50 of 150 nM was found for `COc1ccc(CC2CCOCC2)c(Nc2nc3ccccc3nc2NS(=O)(=O)c2ccc(F)cc2)c1` in this work.
An IC50 of 286 nM was found for `COc1ccc(CCO)c(Nc2nc3ccccc3nc2NS(=O)(=O)c2c(C)noc2C)c1` in this work.
An IC50 of 21 nM was found for `CC#N.COc1ccc(CCCO)c(Nc2nc3ccccc3nc2NS(=O)(=O)c2cn(C)cn2)c1` in this work.
An IC50 of 75 nM was found for `COc1ccc(CCO)c(Nc2nc3ccccc3nc2NS(=O)(=O)CCCSC)c1` in this work.
An IC50 of 88 nM was found for `COC(=O)c1ccc(OC)cc1Nc1nc2ccccc2nc1NS(=O)(=O)c1cccnc1` in this work.
An IC50 of 100 nM was found for `COc1ccc(CC2CCSCC2)c(Nc2nc3ccccc3nc2NS(=O)(=O)c2cn(C)cn2)c1` in this work.
An IC50 of 22 nM was found for `COc1ccc(CCO)c(Nc2nc3ccccc3nc2NS(=O)(=O)c2ccc(C#N)cc2)c1` in this work.
An IC50 of 21 nM was found for `COC(=O)c1ccc(OC)cc1Nc1nc2ccccc2nc1NS(=O)(=O)c1cn(C)cn1` in this work.
An IC50 of 59 nM was found for `CCS(=O)(=O)Nc1nc2ccccc2nc1Nc1cc(OC)ccc1CCCO` in this work.
An IC50 of 1840 nM was found for `COc1ccc(CCOC(=O)[C@@H](NC(=O)OCC2c3ccccc3-c3ccccc32)C(C)C)c(Nc2nc3ccccc3nc2NS(=O)(=O)c2cn(C)cn2)c1` in this work.
An IC50 of 87 nM was found for `COc1ccc(CCS(C)(=O)=O)c(Nc2nc3ccccc3nc2NS(=O)(=O)c2cn(C)c(CN(C)C)n2)c1` in this work.
An IC50 of 42 nM was found for `COc1ccc(CCS(C)(=O)=O)c(Nc2nc3ccccc3nc2NS(=O)(=O)c2ccccc2)c1` in this work.
An IC50 of 72 nM was found for `COc1ccc(CN2CCOCC2)c(Nc2nc3ccccc3nc2NS(=O)(=O)c2cccnc2)c1` in this work.
An IC50 of 72 nM was found for `COc1ccc(CCCO)c(Nc2nc3ccccc3nc2NS(=O)(=O)C(C)C)c1` in this work.
An IC50 of 720 nM was found for `COc1ccc(CCCO)c(Nc2nc3ccccc3nc2NS(=O)(=O)C2CCN(C(=O)OCc3ccccc3)CC2)c1` in this work.
An IC50 of 27 nM was found for `COc1ccc(CC2CCOCC2)c(Nc2nc3ccccc3nc2NS(=O)(=O)c2cccnc2)c1` in this work.
An IC50 of 43 nM was found for `COc1ccc(CCO)c(Nc2nc3ccccc3nc2NS(=O)(=O)c2ccc(CN3CCC(F)CC3)cc2)c1` in this work.
An IC50 of 480 nM was found for `COc1ccc(CCCO)c(Nc2nc3ccccc3nc2NS(=O)(=O)c2cccc(NC(=O)COCc3ccccc3)c2)c1` in this work.
An IC50 of 43 nM was found for `COc1ccc(CC2CCN(C)CC2)c(Nc2nc3ccccc3nc2NS(=O)(=O)c2cn(C)cn2)c1` in this work.
An IC50 of 49 nM was found for `COc1ccc(CN2CCN(C)CC2)c(Nc2nc3ccccc3nc2NS(=O)(=O)c2cccnc2)c1` in this work.
An IC50 of 64 nM was found for `COc1ccc(CCCO)c(Nc2nc3ccccc3nc2NS(C)(=O)=O)c1` in this work.
An IC50 of 36 nM was found for `COc1ccc(CCO)c(Nc2nc3ccccc3nc2NS(=O)(=O)c2ccc(CCCO)cc2)c1` in this work.
An IC50 of 35 nM was found for `COc1ccc(CC2CCSCC2)c(Nc2nc3ccccc3nc2NS(=O)(=O)c2ccc(CN(C)C)cc2)c1` in this work.
An IC50 of 350 nM was found for `COc1cc(Nc2nc3ccccc3nc2NS(=O)(=O)CCCS(C)(=O)=O)cc(C(=O)NCCO)c1` in this work.
An IC50 of 106 nM was found for `COc1ccc(CCO)c(Nc2nc3ccccc3nc2NS(=O)(=O)c2ccc(C)[n+]([O-])c2)c1` in this work.
An IC50 of 11 nM was found for `COc1ccc(CCCN(C)C)c(Nc2nc3ccccc3nc2NS(=O)(=O)c2cn(C)cn2)c1` in this work.
An IC50 of 87 nM was found for `COc1ccc(CCCO)c(Nc2nc3ccccc3nc2NS(=O)(=O)c2cn(C)c(CS(C)(=O)=O)n2)c1` in this work.
An IC50 of 88 nM was found for `CCS(=O)(=O)Nc1nc2ccccc2nc1Nc1cc(OC)ccc1CCS(C)(=O)=O` in this work.
An IC50 of 120 nM was found for `COc1ccc(CCO)c(Nc2nc3ccccc3nc2NS(=O)(=O)CCCS(C)(=O)=O)c1` in this work.
An IC50 of 20 nM was found for `COc1ccc(CC2CCC(O)CC2)c(Nc2nc3ccccc3nc2NS(=O)(=O)c2cccnc2)c1` (stereo not drawn) in this work.
An IC50 of 95 nM was found for `COc1ccc(CCO)c(Nc2nc3ccccc3nc2NS(C)(=O)=O)c1` in this work.
